The results in this text go back to patent publication US20030162661A1, “2,4-Diamino-1,3,5-triazines, their preparation, and their use as herbicides and plant growth regulators” (priority 1998, published 2003).

In test [1] the test system is harmful plants such as Stellaria media, Lolium multiflorum, Amaranthus retroflexus, Sinapis alba, Avena sativa and Setaria viridis. Nature of the test: Pre-emergence effect on weeds (greenhouse pot test, visual scoring).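 Note: scored as plant damage or reduced emergence.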 In kind it is in vivo. The following applies: applied pre-emergence at an application rate of 1 kg or less of active substance per hectare; scored visually after 3 to 4 weeks vs untreated controls. From the text: 1 Pre-emergence Effect on Weeds
Seeds or rhizome pieces of monocotyledonous and dicotyledonous weeds plants are placed in sandy loam soil in plastic pots and covered with soil. The compounds according to the invention which are formulated in the form of wettable powders or emulsion concentrates are then applied to the surface of the soil cover in the form of an aqueous suspension or emulsion at an application rate of 600 to 800 l of water/ha (converted), in various dosages.

Test [2] deals with harmful plants such as Sinapis alba, Echinochloa crus- galli, Lolium multiflorum, Stellaria media, Cyperus iria, Amaranthus retroflexus, Setaria viridis and …. Nature of the test: Post-emergence effect on weeds (greenhouse pot test, visual scoring). The class given is in vivo. Particulars: applied post-emergence (three-leaf stage) at an application rate of 1 kg and less of active substance per hectare; scored visually after about 3 to 4 weeks vs untreated controls. Here is the method:
2. Post-emergence Effect on Weeds
Seeds or rhizome pieces of monocotyledonous and dicotyledonous weeds are placed in sandy loam soil in plastic pots, covered with soil and grown in the greenhouse under good growth conditions. Three weeks after sowing, the test plants are treated in the three-leaf stage. The compounds according to the invention which are formulated as wettable powders or as emulsion concentrates are sprayed in various dosages on the green parts of the plants at an application rate of 600 to 800 l of water/ha (converted). After the test plants have remained in the greenhouse for about 3 to 4 weeks under ideal growth conditions, the effect of the preparations is scored visually by comparison with untreated controls. The agents according to the invention also have a good herbicidal post-emergence action against a broad range of economically important grass weeds and dicotyledonous weeds.

Take `CC(C)c1nc(N)nc(NC(CCc2ccccc2)C2CCCO2)n1` (stereo not shown) [Example 19-6]: the “herbicidal action against harmful plants, pre-emergence” value (shortened to “herbicidal action … pre-emergence”) in test [1] is listed as “very good herbicidal action”. Besides, the “herbicidal action against harmful plants, post-emergence” value (shortened to “herbicidal action … post-emergence”) in test [2] was “very good herbicidal action”.

Regarding `Cc1cc(C)cc(CCC(Nc2nc(N)nc(C(C)C)n2)C2CC2)c1` (stereo not shown) [Example 9-18], in test [1], the “herbicidal action … pre-emergence” value was “very good herbicidal action”. Moreover, in test [2], the “herbicidal action … post-emergence” value is “very good herbicidal action”.

With `COc1cccc(CCCC(Nc2nc(N)nc(C(C)(C)F)n2)C2CC2)c1` (stereo not shown) [Example 22-30], the “herbicidal action … pre-emergence” value in test [1] is “very good herbicidal action”. Moreover, the “herbicidal action … post-emergence” value in test [2] is reported as “very good herbicidal action”.

Take `CC(C)(F)c1nc(N)nc(NC(CCc2ccccc2)C2CCCO2)n1` (stereo not shown) [Example 19-5]: in test [1], the “herbicidal action … pre-emergence” value is on record as “very good herbicidal action”. The “herbicidal action … post-emergence” value in test [2] is on record as “very good herbicidal action”.

As for `CC(C)c1nc(N)nc(NC(CCCCc2ccccc2)C2CC2)n1` (stereo not shown) [Example 30-1], the “herbicidal action … pre-emergence” value in test [1] is “very good herbicidal action”. Also, the “herbicidal action … post-emergence” value in test [2] is “very good herbicidal action”.

For `CC(C)c1nc(N)nc(NC(CCc2ccccc2)C2CCOC2)n1` (stereo not shown) [Example 20-2], the “herbicidal action … pre-emergence” value in test [1] is listed as “very good herbicidal action”. Besides, the “herbicidal action … post-emergence” value in test [2] is recorded as “very good herbicidal action”.

Regarding `Cc1nc(N)nc(NC(CCc2ccccc2)C2CC2)n1` (stereo not shown) [Example 9-3], the “herbicidal action … pre-emergence” value in test [1] was “very good herbicidal action”. Besides, the “herbicidal action … post-emergence” value in test [2] is “very good herbicidal action”.

As for `CC(C)c1nc(N)nc(NC(CCc2ccccc2)CC2CC2)n1` (stereo not shown) [Example 32-1], the “herbicidal action … pre-emergence” value in test [1] is on record as “very good herbicidal action”. In test [2], the “herbicidal action … post-emergence” value is “very good herbicidal action”.

`CC(C)(F)c1nc(N)nc(NC(CCc2ccccc2)c2ccccc2)n1` (stereo not shown) [Example 18-3]: the “herbicidal action … pre-emergence” value in test [1] is recorded as “very good herbicidal action”. The “herbicidal action … post-emergence” value in test [2] is on record as “very good herbicidal action”.

With `CC(C)(F)c1nc(N)nc(NC(CCc2ccccc2)CC2CC2(F)F)n1` (stereo not shown) [Example 33-2], the “herbicidal action … pre-emergence” value in test [1] is recorded as “very good herbicidal action”. The “herbicidal action … post-emergence” value in test [2] was “very good herbicidal action”.

On to `Cc1cccc(CCCC(Nc2nc(N)nc(C(C)C)n2)C2CC2)c1` (stereo not shown) [Example 22-26], for which, in test [1], the “herbicidal action … pre-emergence” value was “very good herbicidal action”. In addition, the “herbicidal action … post-emergence” value in test [2] is recorded as “very good herbicidal action”.

For the molecule `CC(C)c1nc(N)nc(NC(CCCCc2ccccc2)C2CCC2)n1` (stereo not shown) [Example 31-3], the “herbicidal action … pre-emergence” value in test [1] is “very good herbicidal action”. Besides, the “herbicidal action … post-emergence” value in test [2] was “very good herbicidal action”.

Regarding `Cc1cc(C)cc(CCC(Nc2nc(N)nc(C(C)(C)F)n2)C2CC2)c1` (stereo not shown) [Example 9-17, 2-Amino-4-(1-fluoro-1-methylethyl)-6-[3-(3,5-dimethylphenyl)-1-cyclopropyl-1-propylamino]-1,3,5-triazine], in test [1], the “herbicidal action … pre-emergence” value is given as “very good herbicidal action”. Besides, the “herbicidal action … post-emergence” value in test [2] is reported as “very good herbicidal action”.

Regarding `CC(C)(F)c1nc(N)nc(NC(CCCc2cccc(Cl)c2)C2CC2)n1` (stereo not shown) [Example 22-18], in test [1], the “herbicidal action … pre-emergence” value is on record as “very good herbicidal action”. Also, in test [2], the “herbicidal action … post-emergence” value was “very good herbicidal action”.

As to `CC(C)c1nc(N)nc(NC(CCc2ccccc2)c2ccccc2)n1` (stereo not shown) [Example 18-4], the “herbicidal action … pre-emergence” value in test [1] was “very good herbicidal action”. Besides, in test [2], the “herbicidal action … post-emergence” value is given as “very good herbicidal action”.

`CCc1nc(N)nc(NC(CCc2ccccc2)CC2CC2(F)F)n1` (stereo not shown) [Example 33-4]: the “herbicidal action … pre-emergence” value in test [1] was “very good herbicidal action”. The “herbicidal action … post-emergence” value in test [2] is “very good herbicidal action”.

As for `CC(C)(F)c1nc(N)nc(NC(CCc2cccc(Cl)c2)C2CCC2)n1` (stereo not shown) [Example 4-11], in test [1], the “herbicidal action … pre-emergence” value is listed as “very good herbicidal action”. For the same molecule, in test [2], the “herbicidal action … post-emergence” value is listed as “very good herbicidal action”.

Turning to `CC(C)(F)c1nc(N)nc(NC(CCCc2ccccc2)C2CCC2)n1` (stereo not shown) [Example 28-10], the “herbicidal action … pre-emergence” value in test [1] was “very good herbicidal action”. Moreover, the “herbicidal action … post-emergence” value in test [2] was “very good herbicidal action”.

On to `Cc1cc(C)cc(CCCC(Nc2nc(N)nc(C(C)(C)F)n2)C2CC2)c1` (stereo not shown) [Example 22-28, 2-Amino-4-(1-fluoro-1-methylethyl)-6-[4-(3,5-dimethylphenyl)-1-cyclopropyl-1-butylamino]-1,3,5-triazine], for which the “herbicidal action … pre-emergence” value in test [1] was “very good herbicidal action”. Further, the “herbicidal action … post-emergence” value in test [2] is recorded as “very good herbicidal action”.

Regarding `CC(C)c1nc(N)nc(NC(CCCc2cccc(F)c2)C2CC2)n1` (stereo not shown) [Example 22-25], in test [1], the “herbicidal action … pre-emergence” value is reported as “very good herbicidal action”. The “herbicidal action … post-emergence” value in test [2] is on record as “very good herbicidal action”.

For the molecule `CCc1nc(N)nc(NC(CCCc2ccccc2)C2CC2)n1` (stereo not shown) [Example 22-9], in test [1], the “herbicidal action … pre-emergence” value is “very good herbicidal action”. Moreover, the “herbicidal action … post-emergence” value in test [2] is reported as “very good herbicidal action”.

For the molecule `COc1cccc(CCC(CC2CC2)Nc2nc(N)nc(C(C)C)n2)c1` (stereo not shown) [Example 32-11], in test [1], the “herbicidal action … pre-emergence” value is on record as “very good herbicidal action”. For the same molecule, the “herbicidal action … post-emergence” value in test [2] is recorded as “very good herbicidal action”.

Take `CC(C)(F)c1nc(N)nc(NC(CCCc2ccccc2)C2CC2)n1` (stereo not shown) [Example 22-12, 2-Amino-4-(1-fluoro-1-methylethyl)-6-(1-phenyl-4-cyclopropyl-4-butylamino)-1,3,5-triazine]: the “herbicidal action … pre-emergence” value in test [1] is “very good herbicidal action”. Also, the “herbicidal action … post-emergence” value in test [2] was “very good herbicidal action”.

On to `COc1cccc(CCC(Nc2nc(N)nc(C(C)(C)F)n2)C2CC2)c1` (stereo not shown) [Example 9-14], for which, in test [1], the “herbicidal action … pre-emergence” value is “very good herbicidal action”. Further, in test [2], the “herbicidal action … post-emergence” value is listed as “very good herbicidal action”.

Consider `Cc1nc(N)nc(NC(CCc2ccccc2)C2CCC2)n1` (stereo not shown) [Example 4-3], for which the “herbicidal action … pre-emergence” value in test [1] is “very good herbicidal action”. In addition, the “herbicidal action … post-emergence” value in test [2] is “very good herbicidal action”.

For the molecule `CC(C)c1nc(N)nc(NC(CCc2ccccc2)c2ccoc2)n1` (stereo not shown) [Example 18-2], the “herbicidal action … pre-emergence” value in test [1] is listed as “very good herbicidal action”. Moreover, the “herbicidal action … post-emergence” value in test [2] is on record as “very good herbicidal action”.

As to `CC(C)(F)c1nc(N)nc(NC(CCCCc2ccccc2)C2CCC2)n1` (stereo not shown) [Example 31-1], the “herbicidal action … pre-emergence” value in test [1] is listed as “very good herbicidal action”. Moreover, in test [2], the “herbicidal action … post-emergence” value is reported as “very good herbicidal action”.

On to `CC(C)(F)c1nc(N)nc(NC(CCc2ccccc2)c2ccoc2)n1` (stereo not shown) [Example 18-1], for which, in test [1], the “herbicidal action … pre-emergence” value was “very good herbicidal action”. Moreover, in test [2], the “herbicidal action … post-emergence” value was “very good herbicidal action”.

In the case of `Cc1ccccc1CCC(Nc1nc(N)nc(C(C)(C)F)n1)C1CCC1` (stereo not shown) [Example 4-25], the “herbicidal action … pre-emergence” value in test [1] is “very good herbicidal action”. The “herbicidal action … post-emergence” value in test [2] is reported as “very good herbicidal action”.

As to `Cc1cccc(CCC(Nc2nc(N)nc(C(C)(C)F)n2)C2CC2)c1` (stereo not shown) [Example 9-16], the “herbicidal action … pre-emergence” value in test [1] is reported as “very good herbicidal action”. The “herbicidal action … post-emergence” value in test [2] is given as “very good herbicidal action”.

As to `COc1cccc(CCCC(Nc2nc(N)nc(C(C)C)n2)C2CC2)c1` (stereo not shown) [Example 22-29], in test [1], the “herbicidal action … pre-emergence” value is recorded as “very good herbicidal action”. The “herbicidal action … post-emergence” value in test [2] is listed as “very good herbicidal action”.

For `Cc1cccc(CCC(CC2CC2)Nc2nc(N)nc(C(C)C)n2)c1` (stereo not shown) [Example 32-9], in test [1], the “herbicidal action … pre-emergence” value is “very good herbicidal action”. The “herbicidal action … post-emergence” value in test [2] is “very good herbicidal action”.

Turning to `CCc1nc(N)nc(NC(CCc2ccccc2)C2CC2)n1` (stereo not shown) [Example 9-2], the “herbicidal action … pre-emergence” value in test [1] was “very good herbicidal action”. Moreover, in test [2], the “herbicidal action … post-emergence” value is recorded as “very good herbicidal action”.

`CC(C)c1nc(N)nc(NC(CCc2ccccc2)C2CCCC2)n1` (stereo not shown) [Example 8-1]: the “herbicidal action … pre-emergence” value in test [1] is listed as “very good herbicidal action”. Moreover, the “herbicidal action … post-emergence” value in test [2] was “very good herbicidal action”.

Consider `COc1cccc(CCC(CC2CC2)Nc2nc(N)nc(C(C)(C)F)n2)c1` (stereo not shown) [Example 32-12], for which the “herbicidal action … pre-emergence” value in test [1] was “very good herbicidal action”. Besides, in test [2], the “herbicidal action … post-emergence” value was “very good herbicidal action”.
